From patent US12577234B2, “Antagonists of the muscarinic acetylcholine receptor M4” (Vanderbilt University, priority 2017, dated 2026)

How the values were obtained:
[1] = system: haloperidol-induced catalepsy in mice; assay: catalepsy induced by the DA receptor antagonist haloperidol; format: in vivo
[2] = system: M4 knockout mice; conditions: but not the other four mAChR subtypes; cited from earlier work
[3] = target: T1, human mAChR M4 (Homo sapiens, UniProt P08173); assay: mAChR M4 cell-based functional assay (calcium mobilization, EC80 acetylcholine), human M4; conditions: Table 10
T1 construct: expressed in transfected cells; host or cells: CHO-K1 (ATCC), stably co-expressing chimeric G protein Gqi5
T1 sequence (P08173 1-479): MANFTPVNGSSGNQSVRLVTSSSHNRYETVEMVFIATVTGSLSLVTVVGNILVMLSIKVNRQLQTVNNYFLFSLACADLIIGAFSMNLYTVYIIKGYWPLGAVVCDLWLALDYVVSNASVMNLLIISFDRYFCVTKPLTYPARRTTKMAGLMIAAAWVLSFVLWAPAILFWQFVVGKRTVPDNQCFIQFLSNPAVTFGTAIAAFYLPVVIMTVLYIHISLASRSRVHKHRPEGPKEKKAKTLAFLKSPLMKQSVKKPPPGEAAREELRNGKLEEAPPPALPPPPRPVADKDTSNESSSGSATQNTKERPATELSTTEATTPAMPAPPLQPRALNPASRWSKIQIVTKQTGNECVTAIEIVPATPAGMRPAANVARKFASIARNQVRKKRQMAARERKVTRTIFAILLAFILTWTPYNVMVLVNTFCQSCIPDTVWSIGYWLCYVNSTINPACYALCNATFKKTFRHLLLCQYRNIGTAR
In short: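 CHO-K1 cells stably expressing human M4 with chimeric Gqi5; intracellular calcium rise read on FDSS as fluorescence static ratio at 1 Hz. Compounds in 10-point 1:3 dilution series; IC50 taken as concentration-dependent decrease of the EC80 acetylcholine response, four-parameter logistic fit.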

[4] = target: T2, rat mAChR M4 (Rattus norvegicus, UniProt P08485); assay: mAChR M4 cell-based functional assay (calcium mobilization, EC80 acetylcholine), rat M4; conditions: Table 10
T2 construct: expressed in transfected cells; host or cells: CHO-K1 (ATCC), stably co-expressing chimeric G protein Gqi5
T2 sequence (P08485 1-478): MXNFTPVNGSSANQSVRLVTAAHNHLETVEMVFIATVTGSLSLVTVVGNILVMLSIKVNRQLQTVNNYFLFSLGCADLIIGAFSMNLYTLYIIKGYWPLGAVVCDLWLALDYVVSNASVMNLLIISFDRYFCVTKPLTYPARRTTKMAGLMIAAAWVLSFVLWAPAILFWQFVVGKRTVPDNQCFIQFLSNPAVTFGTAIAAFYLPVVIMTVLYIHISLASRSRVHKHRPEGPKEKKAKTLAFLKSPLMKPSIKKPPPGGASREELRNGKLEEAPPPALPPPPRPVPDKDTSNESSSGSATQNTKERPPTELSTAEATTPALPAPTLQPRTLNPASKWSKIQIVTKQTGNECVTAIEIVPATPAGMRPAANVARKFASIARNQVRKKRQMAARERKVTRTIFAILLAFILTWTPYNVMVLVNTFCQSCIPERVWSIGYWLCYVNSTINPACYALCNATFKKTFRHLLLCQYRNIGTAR
Description: Human or rat M4 cDNA, along with the chimeric G protein Gqi5, were transfected into Chinese hamster ovary (CHO-K1) cells purchased from the American Type Culture Collection using Lipofectamine2000. M4/Gqi5/CHO cells were grown in Ham's F-12 medium containing 10% heat-inactivated fetal bovine serum (FBS), 20 mM HEPES, 500 μg/mL G418 sulfate, and 200 μg/mL Hygromycin B.
For high throughput measurement of agonist-evoked increases in intracellular calcium, CHO-K1 cells stably expressing muscarinic receptors were plated in growth medium lacking G418 and hygromycin at 15,000 cells/20 μL/well in Greiner 384-well black-walled, tissue culture (TC)-treated, clear-bottom plates (VWR). Cells were incubated overnight at 37° C. and 5% CO2. The next day, cells were washed using an ELX 405 (BioTek) with assay buffer; the final volume was then aspirated to 20 μL. Next, 20 μL of a 2.3 μM stock of Fluo-4/acetoxymethyl ester (Invitrogen, Carlsbad, CA), prepared as a 2.3 mM stock in DMSO and mixed in a 1:1 ratio with 10% (w/v) Pluronic F-127 and diluted in assay buffer, was added to the wells and the cell plates were incubated for 50 min at 37° C. and 5% CO2. Dye was removed by washing with the ELX 405 and the final volume was aspirated to 20 μL. Compound master plates were formatted in a 10 point concentration-response curve (CRC) format (1:3 dilutions) in 100% DMSO with a starting concentration of 10 or 1 mM using a BRAVO liquid handler (Agilent). Test compound CRCs were then transferred to daughter plates (240 nL) using the Echo acoustic plate reformatter (Labcyte, Sunnyvale, CA) and then diluted into assay buffer (40 μL) to a 2× stock using a Thermo Fisher Combi (Thermo Fisher Scientific, Waltham, MA).
Calcium flux was measured using the Functional Drug Screening System (FDSS) 6000 or 7000 (Hamamatsu Corporation, Tokyo, Japan) as an increase in the fluorescent static ratio. Compounds were applied to cells (20 μL, 2×) using the automated system of the FDSS at 2 seconds into the protocol and the data were collected at 1 Hz. At 143 s, 10 μL of an EC20 concentration of the muscarinic receptor agonist acetylcholine was added (5×), followed by the addition of 12 μL of an EC80 concentration of acetylcholine at the 268 s time point (5×). Agonist activity was analyzed as a concentration-dependent increase in calcium mobilization upon compound addition. Positive allosteric modulator activity was analyzed as a concentration-dependent increase in the EC20 acetylcholine response. Antagonist activity was analyzed as a concentration-dependent decrease in the EC80 acetylcholine response; for the purposes of the tables herein, an IC50 (inhibitory concentration 50) was calculated as a concentration-dependent decrease of the response elicited by an EC80 concentration of acetylcholine. Concentration-response curves were generated using a four-parameter logistical equation in XLFit curve fitting software (IDBS, Bridgewater, NJ) for Excel (Microsoft, Redmond, WA) or Prism (GraphPad Software, Inc., San Diego, CA) or the Dotmatics software platform (Dotmatics, Bishop's Stortford, UK).

[5] = M4/Gqi5/CHO-K1 cells, decrease of EC80 acetylcholine response

SMILES	reduction of haloperidol-induced catalepsy ([1]; M4KO mice)	reversal of haloperidol-induced catalepsy ([1]; WT mice)	locomotor-activating effects [2]	Human M4 Emin [3]	IC50 [3, 5]	Rat M4 Emin [4]	IC50 [4, 5]
CN1[C@@H]2C[C@@H](OC(=O)[C@H](CO)c3ccccc3)C[C@H]1[C@@H]1O[C@@H]12 [scopolamine]	ineffective in reducing catalepsy	completely reversed	dramatically reduced				
CC(=O)Nc1ccc(-c2ccc(O[C@H]3C[C@@H]4CN(CCC(C)(C)C)C[C@@H]4C3)nn2)cc1 [Compound 129, N-[4-[6-[[(3aR,5s,6aS)-2-(3,3-dimethylbutyl)-3,3a,4,5,6,6a-hexahydro-1H-cyclopenta[c]pyrrol-5-yl]oxy]pyridazin-3-yl]phenyl]acetamide]				4%	91.2 nM	4%	195 nM
